Read-outs that look alike come from different tables or passages of the source.
Experiments:
[1] = target: AChE (E.C. 3.1.1.7, Type V-S, from electric eel) (Electrophorus electricus, UniProt O42275); assay: biochemical
BuChE from equine serum = target: T1, BuChE from equine serum (Equus caballus, UniProt P81908); assay: biochemical
T1 construct: BuChE from equine serum; purchased Sigma-Aldrich (Steinheim, Germany); host or cells: equine serum
T1 sequence (P81908 whole entry): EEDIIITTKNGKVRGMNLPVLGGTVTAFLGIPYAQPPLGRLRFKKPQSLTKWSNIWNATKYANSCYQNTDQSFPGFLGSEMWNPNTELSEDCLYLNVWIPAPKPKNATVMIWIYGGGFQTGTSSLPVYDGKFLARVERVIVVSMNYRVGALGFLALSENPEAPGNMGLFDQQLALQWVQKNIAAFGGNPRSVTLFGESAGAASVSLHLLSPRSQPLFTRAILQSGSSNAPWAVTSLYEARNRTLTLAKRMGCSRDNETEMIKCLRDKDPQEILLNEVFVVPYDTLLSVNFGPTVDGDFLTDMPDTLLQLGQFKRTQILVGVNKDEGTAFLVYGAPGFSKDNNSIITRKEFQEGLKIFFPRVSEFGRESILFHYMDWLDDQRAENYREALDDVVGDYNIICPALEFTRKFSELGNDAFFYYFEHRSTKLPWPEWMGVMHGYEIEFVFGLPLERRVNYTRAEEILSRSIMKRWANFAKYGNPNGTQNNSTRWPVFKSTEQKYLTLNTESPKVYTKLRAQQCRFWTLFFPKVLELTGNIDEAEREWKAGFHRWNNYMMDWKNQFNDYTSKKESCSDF

Sequence of AChE (E.C. 3.1.1.7, Type V-S, from electric eel) (O42275 24-633): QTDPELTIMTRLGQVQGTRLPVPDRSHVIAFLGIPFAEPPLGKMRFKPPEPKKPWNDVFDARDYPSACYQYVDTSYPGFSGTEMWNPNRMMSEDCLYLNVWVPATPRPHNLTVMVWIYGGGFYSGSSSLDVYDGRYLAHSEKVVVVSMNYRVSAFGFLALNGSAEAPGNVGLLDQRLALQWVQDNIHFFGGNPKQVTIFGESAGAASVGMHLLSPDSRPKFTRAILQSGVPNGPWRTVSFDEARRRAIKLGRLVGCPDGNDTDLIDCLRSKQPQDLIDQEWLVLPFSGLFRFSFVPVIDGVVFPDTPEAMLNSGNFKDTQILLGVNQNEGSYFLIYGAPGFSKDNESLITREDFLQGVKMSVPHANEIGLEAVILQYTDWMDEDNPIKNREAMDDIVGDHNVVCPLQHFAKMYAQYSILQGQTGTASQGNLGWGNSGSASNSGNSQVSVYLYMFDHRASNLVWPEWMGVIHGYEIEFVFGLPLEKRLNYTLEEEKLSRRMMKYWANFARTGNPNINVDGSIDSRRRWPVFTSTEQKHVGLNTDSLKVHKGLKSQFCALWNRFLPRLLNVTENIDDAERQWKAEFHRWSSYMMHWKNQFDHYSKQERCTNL

| Compound | IC50 [1] | IC50 (BuChE from equine serum) | IC50 (BuChE from equine serum; Ellman's method, 25°C, pH 8.0, 15 min pre-incubation, mean ± SD of three independent experiments, read-out: BuChE (IC50 ± SD)) |
| --- | --- | --- | --- |
| COc1cc2c(cc1OC)C(=O)/C(=C/c1cc[n+](Cc3ccccc3)cc1)O2 [5a, (Z)-1-Benzyl-4-((5,6-dimethoxy-3-oxobenzofuran-2(3H)-ylidene)methyl) pyridinium bromide] | 86 ± 10.9 nM | 1400 ± 85 nM |  |
| COc1cc2c(cc1OC)C(=O)/C(=C/c1cc[n+](Cc3ccc(C)cc3)cc1)O2 [5g, (Z)-1-(4-Methylbenzyl)-4-((5,6-dimethoxy-3-oxobenzofuran-2(3H)-ylidene)methyl) pyridinium chloride] | 514 ± 29.5 nM |  | 7600 ± 260 nM |

— publication PMC3599263 (DARU Journal of Pharmaceutical Sciences, 2013)
